Literature values, collected in publication PMC9905294 (Biochemistry, 2023).

Target: Mtb Eis (Mycobacterium tuberculosis, UniProt P9WFK7)
Settings: previously published value; cited from earlier work

Mtb Eis, sequence (P9WFK7 whole entry): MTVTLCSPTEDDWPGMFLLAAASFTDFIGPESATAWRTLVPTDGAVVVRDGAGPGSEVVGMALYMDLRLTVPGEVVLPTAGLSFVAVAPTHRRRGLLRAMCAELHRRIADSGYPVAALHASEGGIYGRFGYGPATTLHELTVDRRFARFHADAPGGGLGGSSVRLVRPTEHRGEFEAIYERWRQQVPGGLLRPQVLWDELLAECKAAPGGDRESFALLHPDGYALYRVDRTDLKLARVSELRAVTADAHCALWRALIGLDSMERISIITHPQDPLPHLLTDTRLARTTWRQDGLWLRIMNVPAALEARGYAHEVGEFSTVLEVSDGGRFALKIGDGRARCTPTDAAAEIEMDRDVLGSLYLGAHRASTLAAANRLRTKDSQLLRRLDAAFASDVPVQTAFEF

## [H]/N=C(\N/C(=N/[H])NCCCCCCNC(=N)NC(=N)Nc1ccc(Cl)cc1)Nc1ccc(Cl)cc1 [Chlorhexidine (CHX), Chlorhexidine]
  IC50: 670 ± 190 nM
